Legend:
[1] = molecular target: type 4 phosphodiesterases (PDE4); experiment: Inhibition of the phosphodiesterase (PDE4), enzymatic preparation from line U937; format: biochemical; conditions: PDE4 from cytosolic preparation of human cell line U937
Procedure: The capacity of the formula (I) compounds of the invention to inhibit the cyclic nucleotide phosphodiesterases is evaluated by their Cl50 measurement (necessary concentration to inhibit 50% of enzymatic activity).
The type 4 phosphodiesterases are obtained from a cytosolic preparation extracted from the human origin cellular line U937 according to a method adapted from T. J. Torphy and al., 1992, J.Pharm.Exp. Ther. 263: 1195-1205
The other classes of phosphodiesterases are obtained after partial purification FPLC on Mono Q column. (anion exchange column) according to a method adapted from Lavan B. E., Lakey T., Houslay M. D. Biochemical Pharmacology, 1989, 38(22), 4123-4136., and from Silver P. J and al., 1988, Eur.J. Pharmacol. 150: 85-94, either, from human origin cellular lines for PDE 1 (monocytar line TPH1) and PDE5 (line MCF7 issued from an adenocarcinoma), or from dog aorta for PDE 3, or for the human PDE3A, from gene cloning in insect cells SF21 in baculovirus, according to a method adapted from Luckow, V. A. and al., 1991 in Recombinant DNA Technology&Applications.,eds. Prokop, Bajpai,R. K.&Ho,C. S., pp97-152. The enzymatic activity measurement of the different PDE classes, and in particular the PDE 4, is performed according to a method adapted from W. J. Thompson and al. 1979, Advances in Cyclic Nucleotide Research, Vol. 10: 69-92, ed. G. Brooker and al. Raven Press, NY.
For the Cl50 determination, the enzymatic activity is measured in the presence of inhibitor within concentration margins of 0.1 to 100 μM.
The following table illustrates the PDE4 inhibitory activity from enzymatic preparation obtained from the line U937.

[2] = tested on: TNFα production in plasma; experiment: In vivo TNFα model in Wistar rat; conditions: po, 1.5 h, 10 mg/kg p.o. 30 min before LPS i.p., plasma TNFα 90 min after LPS, male Wistar rats, read-out: % Inhibition to 10 mg/kg
Description: The TFNα is a cytokin playing a central role in inflammation mechanisms. Its production may be induced by injection of lipopolysaccharid (LPS). It has been shown that the intracellular AMPc increase, produced in particular by PDE4 inhibitors, decreases the TNFα production in in vitro and in vivo models. Therefore it matters here to quantify in vivo anti-inflammatory potential of the compounds of the invention, administrated by oral route (p.o.) by measuring inhibition of TNFα production in plasma in rat, the latter having received a intraperitoneal injection (i.p.) of lipolysaccharid (LPS). The treatment by the compounds of the invention or the carrier is administrated by oral route in male Wistar rats, 30 min. before LPS injection. The rats are sacrificed 90 min. after LPS stimulation, the blood is harvested on EDTA and TNFα concentration is measured in each plasma sample.

Structure (SMILES) | IC50 [1] [nM] | melting point | change in vivo at 10 mg/kg [2] [%]
Cc1ccc2c(c1)c(=O)n(CC=Cc1ccccc1)c1nnc(N3CCCC3)n21 [Compound 98, 7-Methyl-4-(3-phenyl-allyl)-1-pyrrolidin-1-yl-4H-[1,2,4]triazolo[4,3-a]quinazolin-5-one] | 29 | 173 °C | -75
COc1ccc(Cn2c(=O)c3cc(Br)ccc3n3c(N4CCCCCC4)nnc23)cc1OC [Compound 35, 1-Azepan-1-yl-7-bromo-4-(3,4-dimethoxy-benzyl)-4H-[1,2,4]triazolo[4,3-a]quinazolin-5-one] | 20 | 185 °C | -51
O=c1c2cc(Br)ccc2n2c(N3CCCCCC3)nnc2n1Cc1ccccc1 [Compound 163, 1-(azepan-1-yl)-4-benzyl-7-bromo-4H-[1,2,4]triazolo[4,3-a]-quinazolin-5-one] | – | – | -64
CN(C)c1nnc2n(C/C=C/c3ccccc3)c(=O)c3cc(N)ccc3n12 [Compound 229, 7-Amino-1-dimethylamino-4-((E)-3-phenyl-allyl)-4H-[1,2,4]triazolo[4,3-a]quinazolin-5-one] | 80 | 198 °C | –
COc1ccc(Cn2c(=O)c3cc(Br)ccc3n3c(N4CCCCC4)nnc23)cc1OC [Compound 75, 7-Bromo-4-(3,4-dimethoxy-benzyl)-1-piperidin-1-yl-4H-[1,2,4]triazolo[4,3-a]quinazolin-5-one] | 78 | 178 °C | –
O=c1c2cc(Br)ccc2n2c(N3CCCC3)nnc2n1C/C=C/c1ccncc1 [Compound 62, 7-Bromo-4-((E)-3-pyridin-4-yl-allyl)-1-pyrrolidin-1-yl-4H-[1,2,4]triazolo[4,3-a]quinazolin-5-one] | 53 | 167 °C | –
COC(=O)C(c1ccccc1)n1nc(N(C)C)n2c3ccc(Br)cc3c(=O)nc12 (stereo not drawn) [Compound 156, (7-Bromo-1-dimethylamino-5-oxo-5H-[1,2,4]triazolo[4,3-a]quinazolin-3-yl)-phenyl-acetic acid methyl ester] | 90 | 83 °C | –
Cc1ccc(Cn2c(=O)c3cc(Br)ccc3n3c(N4CCCC4)nnc23)cc1 [Compound 42, 7-Bromo-4-(4-methyl-benzyl)-1-pyrrolidin-1-yl-4H-[1,2,4]triazolo[4,3-a]quinazolin-5-one] | 24 | 215 °C | –
Nc1ccc2c(c1)c(=O)n(C/C=C/c1cccnc1)c1nnc(N3CCCC3)n21 [Compound 227, 7-Amino-4-((E)-3-pyridin-3-yl-allyl)-1-pyrrolidin-1-yl-4H-[1,2,4]triazolo[4,3-a]quinazolin-5-one] | 28 | 201 °C | –
CN(C)c1nnc2n(Cc3ccc(O)cc3)c(=O)c3cc(Br)ccc3n12 [Compound 80, 7-Bromo-1-dimethylamino-4-(4-hydroxy-benzyl)-4H-[1,2,4]triazolo[4,3-a]quinazolin-5-one] | 73 | 284 °C | –
O=c1c2cc(Br)ccc2n2c(N3CCCC3)nnc2n1CC=Cc1ccccc1 [Compound 57, 1-(pyrrolidin-1-yl)-7-bromo-4-(3-phenylallyl)-4H-[1,2,4]triazolo[4,3-a]quinazolin-5-one] | 14 | 152 to 155 °C | –
O=c1c2cc(Br)ccc2n2c(N3CCCC3)nnc2n1C/C=C/c1ccc(Cl)cc1 [Compound 59, 7-Bromo-4-[(E)-3-(4-chloro-phenyl)-allyl]-1-pyrrolidin-1-yl-4H-[1,2,4)triazolo[4,3-a]quinazolin-5-one] | 90 | 187 °C | –
CN(C)c1nnc2n(CC#Cc3ccccc3)c(=O)c3cc(Br)ccc3n12 [Compound 89, 7-Bromo-1-dimethylamino-4-(3-phenyl-prop-2-ynyl)-4H-[1,2,4]triazolo[4,3-a]quinazolin-5-one] | 27 | 159 °C | –
CNc1ccc2c(c1)c(=O)n(Cc1ccccc1)c1nnc(N3CCCC3)n21 [Compound 230, 4-Benzyl-7-methylamino-1-pyrrolidin-1-yl-4H-[1,2,4]triazolo[4,3-a]quinazolin-5-one] | 2 | 171 °C | –
Cc1ccc2c(c1)c(=S)n(CC=Cc1cccnc1)c1nnc(N(C)C)n21 [Compound 246, 1-Dimethylamino-7-methyl-4-(3-pyridin-3-yl-allyl)-4H-[1,2,4]triazolo[4,3-a]quinazoline-5-thione] | 41 | 133 °C | –
O=c1c2cc(Cl)ccc2n2c(N3CCCCCC3)nnc2n1Cc1ccc(F)cc1 [Compound 13, 1-(azepan-1-yl)-7-chloro-4-(4-fluorobenzyl)-4H-[1,2,4]triazolo[4,3-a]quinazolin-5-one] | 60 | 150 °C | –
O=c1c2cc(Br)ccc2n2c(N3CCCC3)nnc2n1Cc1ccc(O)cc1 [Compound 51, 7-Bromo-4-(4-hydroxy-benzyl)-1-pyrrolidin-1-yl-4H-[1,2,4]triazolo[4,3-a]quinazolin-5-one] | 27 | 288 °C | –

Second part, led by results:

IC50 [1] [nM] | melting point | Structure (SMILES) | change in vivo at 10 mg/kg [2] [%]
– | 175 °C | Cc1ccc2c(c1)c(=O)n(Cc1cccnc1)c1nnc(N3CCCCCC3)n21 [Compound 91, 1-Azepan-1-yl-7-methyl-4-pyridin-3-ylmethyl-4H-[1,2,4]triazolo[4,3-a]quinazolin-5-one] | -70
11 | 202 °C | CN(C)C(=O)Cc1ccc(Cn2c(=O)c3cc(Br)ccc3n3c(N4CCCC4)nnc23)cc1 [Compound 242, 2-[4-(7-Bromo-5-oxo-1-pyrrolidin-1-yl-5H-[1,2,4]triazolo[4,3-a]quinazolin-4-ylmethyl)-phenyl]-N,N-dimethyl-acetamide] | –
30 | 195 °C | Cc1ccc2c(c1)c(=O)n(CC=Cc1ccccc1)c1nnc(N3CCCCCC3)n21 [Compound 92, 1-Azepan-1-yl-7-methyl-4-(3-phenyl-allyl)-4H-[1,2,4]triazolo[4,3-a]quinazolin-5-one] | –
80 | 169 °C | COc1ccc(Cn2c(=O)c3cc(Br)ccc3n3c(N4CCCC4)nnc23)cc1 [Compound 49, 7-Bromo-4-(4-methoxy-benzyl)-1-pyrrolidin-1-yl-4H-[1,2,4]triazolo[4,3-a]quinazolin-5-one] | –
35 | 195 °C | CC(=O)Oc1ccc(Cn2c(=O)c3cc(Br)ccc3n3c(N4CCCC4)nnc23)cc1 [Compound 50, Acetic acid 4-(7-bromo-5-oxo-1-pyrrolidin-1-yl-5H-[1,2,4]triazolo[4,3-a]quinazolin-4-ylmethyl)-phenyl ester] | –
75 | 240 °C (dec.) | Nc1ccc2c(c1)c(=O)n(Cc1ccccc1)c1nnc(N3CCCCCC3)n21 [Compound 224, 7-Amino-1-azepan-1-yl-4-benzyl-4H-[1,2,4]triazolo[4,3-a]quinazolin-5-one] | –
410 | 155 °C | O=c1c2cc(Cl)ccc2n2c(N3CCCCCC3)nnc2n1Cc1cccnc1 [Compound 22, 1-(azepan-1-yl)-7-chloro-4-(3-pyridylmethyl)-4H-[1,2,4]triazolo[4,3-a]quinazolin-5-one] | –
90 | 116 °C | N#Cc1ccc(Cn2c(=O)c3cc(Br)ccc3n3c(N4CCCC4)nnc23)cc1 [Compound 46, 4-(7-Bromo-5-oxo-1-pyrrolidin-1-yl-5H-[1,2,4]triazolo[4,3-a]quinazolin-4-ylmethyl)-benzonitrile] | -58
16 | 197 °C | COC(=O)c1ccc(Cn2c(=O)c3cc(Br)ccc3n3c(N(C)C)nnc23)cc1 [Compound 81, 4-(7-Bromo-1-dimethylamino-5-oxo-5H-[1,2,4]triazolo[4,3-a]quinazolin-4-ylmethyl)-benzoic acid methyl ester] | –

— patent publication US6828315B1, “1-Amino triazoloc4,3-a! quinazoline-5-ones and/or -5-thiones inhibiting phosphodiesterase IV” (Warner-Lambert LLC, priority 1999, dated 2004)
